Test results published in PubChem BioAssay AID330 (DTP/NCI, 2004).
Where “and” joins values, the source holds several entries; their conditions need not be identical. Equal entries are not always repeated. Toxic doses and inconclusive results are not listed. The calls were made as follows: active = survival T/C of 150% or more; inactive = T/C below 125% in these data.

Tested on: P388 leukemia ip, CD2F1 mice, survival T/C
Assay: NCI In Vivo Anticancer Drug Screen. Data for tumor model P388 Leukemia (intraperitoneal) in CD2F1 (CDF1) mice
Conditions: endpoint: median survival time, higher = longer survival
How it was run: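 Mice carrying the transplanted tumor received test compound or vehicle. Survival was recorded in each group, and the value is the treated-group measurement divided by that of the vehicle-treated control group.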

[1] = dose: 25.0 mg/kg/injection, schedule: Q01DX005 (ip), vehicle: Klucel (hydroxypropylcellulose) (HPC)
[2] = dose: 50.0 mg/kg/injection, schedule: Q01DX005 (ip), vehicle: Klucel (hydroxypropylcellulose) (HPC)
[3] = dose: 100.0 mg/kg/injection, schedule: Q01DX005 (ip), vehicle: Klucel (hydroxypropylcellulose) (HPC)
[4] = dose: 50.0 mg/kg/injection, schedule: Q01DX005 (ip), vehicle: saline with Tween-80
[5] = dose: 100.0 mg/kg/injection, schedule: Q01DX001 (ip), vehicle: saline with Tween-80
[6] = dose: 100.0 mg/kg/injection, schedule: Q01DX005 (ip), vehicle: saline with Tween-80
[7] = dose: 200.0 mg/kg/injection, schedule: Q01DX001 (ip), vehicle: saline with Tween-80
[8] = dose: 200.0 mg/kg/injection, schedule: Q01DX005 (ip), vehicle: saline with Tween-80
[9] = dose: 400.0 mg/kg/injection, schedule: Q01DX001 (ip), vehicle: saline with Tween-80
[10] = dose: 200.0 mg/kg/injection, schedule: Q01DX005 (ip), vehicle: Klucel (hydroxypropylcellulose) (HPC)
[11] = dose: 100.0 mg/kg/injection, schedule: Q04DX003 (ip), vehicle: saline with Tween-80
[12] = dose: 200.0 mg/kg/injection, schedule: Q04DX003 (ip), vehicle: saline with Tween-80
[13] = dose: 400.0 mg/kg/injection, schedule: Q04DX003 (ip), vehicle: saline with Tween-80
[14] = dose: 50.0 mg/kg/injection, schedule: Q01DX005 (ip), vehicle: saline
[15] = dose: 100.0 mg/kg/injection, schedule: Q01DX005 (ip), vehicle: saline
[16] = dose: 200.0 mg/kg/injection, schedule: Q01DX005 (ip), vehicle: saline

Measured: T/C

C=C1CC(NCC(=O)OCC)=C(O)C1=O
inactive: [1] 93 % of control | [2] 90 % of control | [3] 94 % of control

O=C1N2CCNc3ccccc3C(c3ccccc3)N1CC2 (stereo not given)
inactive: dose: 6.25 mg/kg/injection, schedule: Q01DX005 (ip), vehicle: Klucel (hydroxypropylcellulose) (HPC) 88 % of control | dose: 12.5 mg/kg/injection, schedule: Q01DX005 (ip), vehicle: Klucel (hydroxypropylcellulose) (HPC) 93 % of control | [1] 102 % of control

CC(=O)N(C)OS(C)(=O)=O
inactive: dose: 50.0 mg/kg/injection, schedule: Q01DX001 (ip), vehicle: saline with Tween-80 108 % of control | [4] 101 % of control | [5] 100 % of control | [6] 103 % of control | [7] 104 % of control | [8] 106 % of control | [9] 104 % of control

O=C1c2ccncc2C(=O)c2c(O)ccc(O)c21
inactive: dose: 12.5 mg/kg/injection, schedule: Q01DX009 (ip), vehicle: distilled water + Tween-80 102 % of control | dose: 25.0 mg/kg/injection, schedule: Q01DX009 (ip), vehicle: distilled water + Tween-80 100 % of control | dose: 50.0 mg/kg/injection, schedule: Q01DX009 (ip), vehicle: distilled water + Tween-80 98 % of control | dose: 100.0 mg/kg/injection, schedule: Q01DX009 (ip), vehicle: distilled water + Tween-80 109 % of control

O=C1OC(CO)C(O)C2OC(=O)c3c(c(O)c(O)c(O)c3-c3c(O)c(O)c(O)c4c3C(=O)OC2C4O)-c2c1cc(O)c(O)c2O (stereo not given)
inactive: dose: 1.56 mg/kg/injection, schedule: Q01DX009 (ip), vehicle: saline 105 % of control | dose: 3.12 mg/kg/injection, schedule: Q01DX009 (ip), vehicle: saline 105 % of control | dose: 6.25 mg/kg/injection, schedule: Q01DX009 (ip), vehicle: saline 90 % of control

CC(C)(C)[P+](C)(C)c1ccccc1
inactive: dose: 12.5 mg/kg/injection, schedule: Q04DX003 (ip), vehicle: Klucel (hydroxypropylcellulose) (HPC) 105 % of control | dose: 25.0 mg/kg/injection, schedule: Q04DX003 (ip), vehicle: Klucel (hydroxypropylcellulose) (HPC) 100 % of control

Cc1ccc(NNC(=O)C(=O)O[C@H]2C(=O)OC[C@@H]2O)cc1
inactive: [2] 100 % of control | [3] 100 % of control | [10] 93 % of control

C1=C(c2ccccc2)N=C(c2nncc3ccccc23)C1(c1ccccc1)c1ccccc1
inactive: [11] 101 % of control | [12] 101 % of control | [13] 96 % of control

N#CC1CCCC(CCc2ccccc2)(c2ccccc2)C1=N (stereo not given)
inactive: dose: 50.0 mg/kg/injection, schedule: Q01DX001 (ip), vehicle: Klucel (hydroxypropylcellulose) (HPC) 100 % of control | dose: 100.0 mg/kg/injection, schedule: Q01DX001 (ip), vehicle: Klucel (hydroxypropylcellulose) (HPC) 99 % of control and 101 % of control | dose: 200.0 mg/kg/injection, schedule: Q01DX001 (ip), vehicle: Klucel (hydroxypropylcellulose) (HPC) 91 % of control | dose: 400.0 mg/kg/injection, schedule: Q01DX001 (ip), vehicle: Klucel (hydroxypropylcellulose) (HPC) 102 % of control and 92 % of control

CCCCOc1cc([N+](=O)[O-])ccc1CO
inactive: [11] 100 % of control | [12] 100 % of control | [13] 95 % of control

CC1(C)CC[C@]2(C(=O)O)CC[C@]3(C)C(=CC[C@@H]4[C@@]5(C)CC[C@H](O)C(C)(C)[C@@H]5CC[C@]43C)[C@@H]2C1
inactive: dose: 12.5 mg/kg/injection, schedule: Q01DX009 (ip), vehicle: saline with Tween-80 108 % of control | dose: 25.0 mg/kg/injection, schedule: Q01DX009 (ip), vehicle: saline with Tween-80 99 % of control

N#CCN(CC#N)CC#N
inactive: dose: 1.56 mg/kg/injection, schedule: Q01DX009 (ip), vehicle: saline with Tween-80 104 % of control | dose: 1.56 mg/kg/injection, schedule: Q04DX003 (ip), vehicle: saline with Tween-80 95 % of control | dose: 3.13 mg/kg/injection, schedule: Q01DX009 (ip), vehicle: saline with Tween-80 90 % of control | dose: 3.13 mg/kg/injection, schedule: Q04DX003 (ip), vehicle: saline with Tween-80 90 % of control | dose: 6.25 mg/kg/injection, schedule: Q01DX009 (ip), vehicle: saline with Tween-80 109 % of control | dose: 6.25 mg/kg/injection, schedule: Q04DX003 (ip), vehicle: saline with Tween-80 90 % of control

S=c1[nH]nc(-c2n[nH]c3ccccc23)o1
inactive: [4] 100 % of control | [6] 100 % of control | [8] 97 % of control

Cc1ccc2sc(=S)sc2c1
inactive: dose: 50.0 mg/kg/injection, schedule: Q01DX009 (ip), vehicle: Klucel (hydroxypropylcellulose) (HPC) 89 % of control | dose: 100.0 mg/kg/injection, schedule: Q01DX009 (ip), vehicle: Klucel (hydroxypropylcellulose) (HPC) 99 % of control | dose: 200.0 mg/kg/injection, schedule: Q01DX009 (ip), vehicle: Klucel (hydroxypropylcellulose) (HPC) 96 % of control

Clc1ccc(N=NN2CCOC2)cc1
inactive: dose: 60.0 mg/kg/injection, schedule: Q01DX005 (ip), vehicle: saline with Tween-80 115 % of control | dose: 120.0 mg/kg/injection, schedule: Q01DX005 (ip), vehicle: saline with Tween-80 109 % of control

O=C1CN=C(c2ccccn2)c2cc(Cl)ccc2N1CCO
inactive: dose: 100.0 mg/kg/injection, schedule: Q01DX009 (ip), vehicle: saline with Tween-80 100 % of control | dose: 200.0 mg/kg/injection, schedule: Q01DX009 (ip), vehicle: saline with Tween-80 105 % of control

CN(CCO)c1ncnc2c1ncn2C
inactive: [14] 99 % of control | [15] 108 % of control | [16] 100 % of control

CC(C)CC(O)C(CC(=O)Nc1ccccc1)S(=O)(=O)c1ccccc1 (stereo not given)
inactive: [4] 100 % of control | [6] 92 % of control | [8] 86 % of control

CC(=O)SSC(C)(C)C
inactive: [14] 105 % of control | [15] 114 % of control | [16] 103 % of control

Oc1ccccc1/C=N\Nc1ccccc1
inactive: dose: 100.0 mg/kg/injection, schedule: Q01DX001 (ip), vehicle: other 113 % of control | dose: 200.0 mg/kg/injection, schedule: Q01DX001 (ip), vehicle: other 118 % of control | dose: 400.0 mg/kg/injection, schedule: Q01DX001 (ip), vehicle: other 100 % of control

Cc1cc(NC(=O)C(=O)CC(=O)c2ccc(Cl)c(Cl)c2)no1
inactive: [5] 101 % of control | [7] 108 % of control | [9] 97 % of control

O=[N+]([O-])/C=C/c1cc(Cl)c(/C=C/[N+](=O)[O-])cc1Cl
inactive: [2] 108 % of control and 121 % of control | [3] 120 % of control and 122 % of control | [10] 106 % of control and 123 % of control | dose: 400.0 mg/kg/injection, schedule: Q01DX005 (ip), vehicle: Klucel (hydroxypropylcellulose) (HPC) 97 % of control

NC(N)=NC(N)=Nc1ccc2c(Cl)c(Cl)ccc2c1
inactive: dose: 6.0 mg/kg/injection, schedule: Q01DX005 (ip), vehicle: saline with Tween-80 96 % of control | dose: 12.0 mg/kg/injection, schedule: Q01DX005 (ip), vehicle: saline with Tween-80 111 % of control | dose: 22.0 mg/kg/injection, schedule: Q04DX003 (ip), vehicle: saline with Tween-80 104 % of control | dose: 25.0 mg/kg/injection, schedule: Q01DX005 (ip), vehicle: saline with Tween-80 104 % of control | dose: 25.0 mg/kg/injection, schedule: Q04DX003 (ip), vehicle: saline with Tween-80 120 % of control | dose: 33.0 mg/kg/injection, schedule: Q04DX003 (ip), vehicle: saline with Tween-80 100 % of control | [4] 93 % of control | dose: 50.0 mg/kg/injection, schedule: Q04DX003 (ip), vehicle: saline with Tween-80 118 % of control

Cc1ccc(S(=O)(=O)N=Nc2c(O)c3ccccc3c3ccccc23)cc1
inactive: [4] 103 % of control | [6] 103 % of control | [8] 100 % of control

CN1NC(c2ccccc2)=C(C#N)C(=O)CC1c1ccc(Cl)cc1 (stereo not given)
inactive: dose: 3.75 mg/kg/injection, schedule: Q01DX005 (ip), vehicle: saline with Tween-80 117 % of control | dose: 7.5 mg/kg/injection, schedule: Q01DX005 (ip), vehicle: saline with Tween-80 100 % of control and 101 % of control and 113 % of control

Cc1ccc(C(=NN=C(c2ccc(C)cc2)c2ccc(C)cc2)c2ccc(C)cc2)cc1
inactive: dose: 100.0 mg/kg/injection, schedule: Q04DX002 (ip), vehicle: saline with Tween-80 90 % of control | dose: 200.0 mg/kg/injection, schedule: Q04DX002 (ip), vehicle: saline with Tween-80 93 % of control

NC(Cc1ccc(O)c(Cl)c1)C(=O)O (stereo not given)
inactive: [14] 98 % of control | [15] 98 % of control | [16] 95 % of control
